Assay results as given in patent US20100075957A1, “AMINODIHYDROTHIAZINE DERIVATIVES SUBSTITUTED WITH A CYCLIC GROUP” (SHIONOGI & CO., LTD., priority 2007, published 2010).
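Note: substrate is a peptide carrying biotin and europium cryptate, after the enzyme reaction, Streptavidin-XL665 is added and incubated 1 h at 30 °C before fluorescence reading.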

Each compound was assayed against T1, Recombinant human BACE-1 (Homo sapiens, UniProt P56817) (assay: Assay of β-secretase-inhibiting activity). Details: Recombinant human BACE-1 7.4 nM, substrate peptide 18 nM, pH 5.0, 30° C., 3 hours; Table 139; read-out: IC50.
T1 construct: purchased R&D Systems
T1 sequence (P56817 46-501): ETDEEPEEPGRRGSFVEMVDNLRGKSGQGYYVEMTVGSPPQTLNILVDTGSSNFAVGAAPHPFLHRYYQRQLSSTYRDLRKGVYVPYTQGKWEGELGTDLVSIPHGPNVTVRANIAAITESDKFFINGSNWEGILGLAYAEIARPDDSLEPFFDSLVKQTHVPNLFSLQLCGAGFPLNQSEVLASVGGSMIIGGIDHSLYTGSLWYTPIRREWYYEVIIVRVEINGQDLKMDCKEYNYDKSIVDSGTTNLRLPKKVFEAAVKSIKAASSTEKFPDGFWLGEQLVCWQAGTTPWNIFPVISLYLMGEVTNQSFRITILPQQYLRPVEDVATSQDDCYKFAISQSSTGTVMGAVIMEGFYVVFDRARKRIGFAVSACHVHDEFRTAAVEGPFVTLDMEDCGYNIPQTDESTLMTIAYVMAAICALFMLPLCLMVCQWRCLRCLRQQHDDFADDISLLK
Format: biochemical
In the case of `CSc1ccc(C(=O)Nc2ccc(F)c([C@]3(C)CCSC(N)=N3)c2)s1` [Compound 38], the IC50 is reported as 0.14 µM. `C[C@@]1(c2cccc(NC(=O)c3cnc(OCc4ccccc4)cn3)c2)CCSC(N)=N1` [Compound 101] was tested, and the IC50 was 0.08 µM. In the case of `C[C@@]1(c2cccc(NC(=O)c3cnc(OCC4CCO4)cn3)c2)CCSC(N)=N1` (stereo partly shown) [Compound 94], the IC50 is reported as 0.17 µM. `COCCOc1cnc(C(=O)Nc2cccc(C3(C)CCSC(N)=N3)c2)cn1` (stereo not shown) [Compound 62] showed an IC50 of 0.17 µM. `Cc1cc(C(=O)Nc2cccc([C@]3(C)CCSC(N)=N3)c2)c(C)o1` [Compound 3] was tested, and the IC50 was 0.08 µM. `C[C@@]1(c2cc(NC(=O)c3cnc(-c4ccco4)cn3)ccc2F)CCSC(N)=N1` [Compound 136] gave an IC50 of 0.11 µM. `C[C@@]1(c2cc(NC(=O)CSc3nccc(O)n3)ccc2F)CCSC(N)=N1` [Compound 163] showed an IC50 of 6.79 µM. For `C#CCCOc1cnc(C(=O)Nc2cccc([C@]3(C)CCSC(N)=N3)c2)cn1` [Compound 105], the IC50 was 0.13 µM. With `CSCCOc1cnc(C(=O)Nc2cccc([C@]3(C)CCSC(N)=N3)c2)cn1` [Compound 76] the IC50 was 0.18 µM. `C[C@@]1(c2cc(NC(=O)CCc3cccc(N)c3)ccc2F)CCSC(N)=N1` [Compound 150] gave an IC50 of 2.48 µM.

Same assay, conditions: Recombinant human BACE-1 7.4 nM, substrate peptide 18 nM, pH 5.0, 30° C., 3 hours; Table 140; read-out: IC50
`Cc1nc(Br)sc1C(=O)Nc1cncc([C@]2(C)CCSC(N)=N2)c1` [Compound 497] showed an IC50 of 0.09 µM. `C[C@@]1(c2cc(NC(=O)c3cnc(-n4ccc(C(F)(F)F)n4)cn3)ccc2F)CCSC(N)=N1` [Compound 580] was tested, and the IC50 was 0.13 µM. With `Cc1cnc(C(=O)Nc2cccc([C@]3(C)CCSC(N)=N3)n2)cn1` [Compound 594] the IC50 was 0.17 µM. `COCCOc1cnc(C(=O)Nc2cc([C@]3(C)CCSC(N)=N3)ccn2)cn1` [Compound 591] showed an IC50 of 0.1 µM. Compound `C[C@@]1(c2cc(NC(=O)c3ccc(OCC(N)=O)cn3)ccc2F)CCSC(N)=N1` [Compound 559] has an IC50 of 0.42 µM. `Cn1nc(Cl)cc1C(=O)Nc1cncc([C@]2(C)CCSC(N)=N2)c1` [Compound 478] showed an IC50 of 0.08 µM. `C[C@@]1(c2cc(NC(=O)c3ncc(O)cc3F)ccc2F)CCSC(N)=N1` [Compound 491] gave an IC50 of 0.09 µM. `Cc1cncc(C(=O)Nc2ccc(F)c([C@]3(C)CCSC(N)=N3)c2)n1` [Compound 585] was tested, and the IC50 was 0.06 µM. For `Cc1cnc(C(=O)Nc2cccc([C@]3(C)CCSC(N)=N3)c2)cn1` [Compound 563], the IC50 was 0.02 µM. Compound `Cc1cc2cc(NC(=O)c3ccc(OCCO)cn3)cc([C@]3(C)CCSC(N)=N3)c2o1` [Compound 464] has an IC50 of 0.43 µM. `C[C@@]1(c2cc(NC(=O)c3cnc(-c4ccsc4)cn3)ccc2F)CCSC(N)=N1` [Compound 537] was tested, and the IC50 was 0.02 µM. `Cc1cc(C)n(-c2cnc(C(=O)Nc3ccc(F)c([C@]4(C)CCSC(N)=N4)c3)cn2)n1` [Compound 579] was tested, and the IC50 was 0.14 µM.

Same assay, conditions: Recombinant human BACE-1 7.4 nM, substrate peptide 18 nM, pH 5.0, 30° C., 3 hours; Table 141; read-out: IC50
`Cc1cn2cc(C(=O)Nc3ccc(F)c([C@]4(C)CCSC(N)=N4)c3)ncc2n1` [Compound 652] was tested, and the IC50 was 0.06 µM. For `C[C@@]1(c2cc(Nc3ncc4ccccn34)ccc2F)CCSC(N)=N1` [Compound 668], the IC50 was 0.51 µM.

Same assay, conditions: Recombinant human BACE-1 7.4 nM, substrate peptide 18 nM, pH 5.0, 30° C., 3 hours; time-resolved fluorescence ratio 665/620; read-out: IC50 values (50% inhibitory concentration against the enzymatic activity)
Work on `CC1(C)C[C@@](C)(c2cc(NC(=O)c3ccc(C#N)cn3)ccn2)N=C(N)S1` [Compound 696] yielded an IC50 of no more than 1 µM. Work on `CSc1cnc(C(=O)Nc2cccc([C@]3(C)CCSC(N)=N3)c2)cn1` [Compound 69] yielded an IC50 of no more than 1 µM. For `Cc1cc(C(=O)Nc2cncc([C@]3(C)CCSC(N)=N3)c2)c(C)o1` [Compound 482], the IC50 was no more than 1 µM. Work on `CCOc1nccnc1C(=O)Nc1ccc(F)c([C@]2(C)CCSC(N)=N2)c1` [Compound 43] yielded an IC50 of no more than 1 µM. `Cc1noc(C)c1-c1cnc(C(=O)Nc2ccc(F)c([C@]3(C)CCSC(N)=N3)c2)cn1` [Compound 523] gave an IC50 of no more than 1 µM. `Cc1nc(C(=O)Nc2ccnc([C@]3(C)CCSC(N)=N3)c2)co1` [Compound 612] showed an IC50 of no more than 1 µM. In the case of `CC1(C)C[C@@](C)(c2cc(NC(=O)c3cnc(OCCF)cn3)ccc2F)N=C(N)S1` [Compound 605], the IC50 is reported as no more than 1 µM. Compound `COc1cnc(C(=O)Nc2ccnc([C@]3(C)CCSC(N)=N3)c2)c(C)c1` [Compound 679] has an IC50 of no more than 1 µM. For `COCCOc1cnc(C(=O)Nc2ccc(F)c([C@]3(C)CCSC(N)=N3)c2)cn1` [Compound 75], the IC50 was no more than 1 µM. Compound `C#CCOc1cnc(C(=O)Nc2ccc(F)c([C@@]3(C)N=C(N)SCC34CC4)c2)cn1` [Compound 676] has an IC50 of no more than 1 µM. `COc1cnc(C(=O)Nc2ccc(F)c([C@@]3(C)N=C(N)SC[C@H]3OCc3ccccc3)c2)cn1` [Compound 684] was tested, and the IC50 was no more than 1 µM. For `C#CCOc1cnc(C(=O)Nc2ccnc([C@]3(C)CCSC(N)=N3)c2)cn1` [Compound 659], the IC50 was no more than 1 µM. Work on `Cc1cccnc1C(=O)Nc1ccc(F)c([C@]2(C)CCSC(N)=N2)c1` [Compound 503] yielded an IC50 of no more than 1 µM. With `COCC#Cc1cnc(C(=O)Nc2ccc(F)c([C@]3(C)CCSC(N)=N3)c2)cn1` [Compound 116] the IC50 was no more than 1 µM. Work on `CC#CCNc1cnc(C(=O)Nc2ccc(F)c([C@]3(C)CCSC(N)=N3)c2)cn1` [Compound 120] yielded an IC50 of no more than 1 µM. With `COCCCc1cnc(C(=O)Nc2ccc(F)c([C@]3(C)CCSC(N)=N3)c2)cn1` [Compound 118] the IC50 was no more than 1 µM. Work on `Cc1cnc(C(=O)Nc2ccc(F)c([C@@]3(C)N=C(N)SCC3(C)C)c2)cn1` [Compound 649] yielded an IC50 of no more than 1 µM. `COc1cnc(C(=O)Nc2ccnc([C@]3(C)CC(C)(C)SC(N)=N3)c2)cn1` [Compound 637] was tested, and the IC50 was no more than 1 µM. Work on `COc1cnc(C(=O)Nc2cccc([C@]3(C)CC(C)(C)SC(N)=N3)c2)cn1` [Compound 694] yielded an IC50 of no more than 1 µM. For `Cc1nc(C(=O)Nc2ccc(F)c([C@]3(C)CCSC(N)=N3)c2)c(C)o1` [Compound 554], the IC50 was no more than 1 µM. Work on `C#Cc1cn2cc(C(=O)Nc3ccc(F)c([C@]4(C)CCSC(N)=N4)c3)ncc2n1` [Compound 698] yielded an IC50 of no more than 1 µM. In the case of `CCCCCc1cnc(C(=O)Nc2ccc(F)c([C@]3(C)CCSC(N)=N3)c2)cn1` [Compound 115], the IC50 is reported as no more than 1 µM. `COCC#CCOc1ccc(C(=O)Nc2ccc(F)c([C@]3(C)CCSC(N)=N3)c2)nc1` [Compound 571] showed an IC50 of no more than 1 µM. Compound `Cc1cscc1-c1cnc(C(=O)Nc2ccc(F)c([C@]3(C)CCSC(N)=N3)c2)cn1` [Compound 541] has an IC50 of no more than 1 µM. For `CN(C)CC#CCOc1ccc(C(=O)Nc2ccc(F)c([C@]3(C)CCSC(N)=N3)c2)nc1` [Compound 570], the IC50 was no more than 1 µM. With `Cc1nc(C(=O)Nc2cncc([C@]3(C)CCSC(N)=N3)c2)c(C(F)(F)F)o1` [Compound 501] the IC50 was no more than 1 µM. Compound `C/C=C/COc1cnc(C(=O)Nc2cccc([C@]3(C)CCSC(N)=N3)c2)cn1` [Compound 83] has an IC50 of no more than 1 µM. `Cc1cc(C(=O)Nc2ccc(F)c([C@]3(C)CCSC(N)=N3)c2)on1` [Compound 19] gave an IC50 of no more than 1 µM. Compound `Cc1cnc(C(=O)Nc2ccc(F)c([C@]3(C)CC(C)(C)SC(N)=N3)c2)cn1` [Compound 606] has an IC50 of no more than 1 µM. `C[C@@]1(c2cc(NC(=O)c3cnc(OCC4CCO4)cn3)ccc2F)CCSC(N)=N1` (stereo partly shown) [Compound 672] was tested, and the IC50 was no more than 1 µM. In the case of `C#Cc1cn2cc(C(=O)Nc3ccnc([C@]4(C)CCSC(N)=N4)c3)ncc2n1` [Compound 700], the IC50 is reported as no more than 1 µM. `C[C@@]1(c2cc(NC(=O)c3ncccc3F)ccn2)CCSC(N)=N1` [Compound 613] showed an IC50 of no more than 1 µM. Work on `COc1cnc(C(=O)Nc2cncc([C@]3(C)CC(C)(C)SC(N)=N3)c2)c(N)n1` [Compound 558] yielded an IC50 of no more than 1 µM. In the case of `COC/C=C\c1cnc(C(=O)Nc2ccc(F)c([C@]3(C)CCSC(N)=N3)c2)cn1` [Compound 117], the IC50 is reported as no more than 1 µM. In the case of `C[C@@]1(c2cccc(NC(=O)c3cnc(OCCC(F)(F)F)cn3)c2)CCSC(N)=N1` [Compound 89], the IC50 is reported as no more than 1 µM. In the case of `Cc1cc(C(=O)Nc2ccc(F)c([C@]3(C)CCSC(N)=N3)c2)no1` [Compound 20], the IC50 is reported as no more than 1 µM. For `C[C@@]1(c2cc(NC(=O)c3ncc(Cl)cc3Cl)ccc2F)CCSC(N)=N1` [Compound 690], the IC50 was no more than 1 µM. Compound `C[C@@]1(c2cccc(NC(=O)c3ccc(O)cn3)c2)CCSC(N)=N1` [Compound 110] has an IC50 of no more than 1 µM. For `CC#CCOc1cnc(C(=O)Nc2cc([C@]3(C)CCSC(N)=N3)c3oc(C)cc3c2)cn1` [Compound 469], the IC50 was no more than 1 µM. In the case of `C[C@@]1(c2cc(NC(=O)c3ncc(C(F)(F)F)cc3Cl)ccn2)CCSC(N)=N1` [Compound 678], the IC50 is reported as no more than 1 µM. With `CCOc1cnc(C(=O)Nc2ccc(F)c([C@]3(C)CCSC(N)=N3)c2)cn1` [Compound 134] the IC50 was no more than 1 µM. `C[C@@]1(c2cncc(NC(=O)c3ncc(C(F)(F)F)cc3F)c2)CCSC(N)=N1` [Compound 646] showed an IC50 of no more than 1 µM. For `C[C@@]1(c2cc(NC(=O)c3coc(CCl)n3)ccc2F)CCSC(N)=N1` [Compound 470], the IC50 was no more than 1 µM. Compound `COc1cnc(C(=O)Nc2ccc(F)c([C@@]3(C)N=C(N)SCC34CC4)c2)cn1` [Compound 675] has an IC50 of no more than 1 µM. `C[C@@]1(c2cc(NC(=O)c3nccnc3C(N)=O)ccc2F)CCSC(N)=N1` [Compound 157] showed an IC50 of no more than 1 µM. For `Cc1cc(C(=O)Nc2ccc(F)c([C@]3(C)CCSC(N)=N3)c2)ns1` [Compound 507], the IC50 was no more than 1 µM. `CSc1ccc(C(=O)Nc2cncc([C@]3(C)CCSC(N)=N3)c2)s1` [Compound 493] showed an IC50 of no more than 1 µM. `CCOCCOc1cnc(C(=O)Nc2cccc([C@]3(C)CCSC(N)=N3)c2)cn1` [Compound 81] showed an IC50 of no more than 1 µM. For `CC#CCOc1cnc(C(=O)Nc2ccc(F)c([C@]3(C)CCSC(N)=N3)c2)cn1` [Compound 100], the IC50 was no more than 1 µM. For `C[C@@]1(c2cc(NC(=O)c3cn4cc(C(F)(F)F)nc4cn3)ccc2F)CCSC(N)=N1` [Compound 651], the IC50 was no more than 1 µM. Compound `CC#CCOc1cnc(C(=O)Nc2cccc([C@]3(C)CCSC(N)=N3)c2)cn1` [Compound 91] has an IC50 of no more than 1 µM. For `C[C@@]1(c2cc(NC(=O)c3ccc(OCC#CCO)cn3)ccc2F)CCSC(N)=N1` [Compound 567], the IC50 was no more than 1 µM. `C#CCOc1cnc(C(=O)Nc2cncc([C@]3(C)CCSC(N)=N3)c2)cn1` [Compound 556] was tested, and the IC50 was no more than 1 µM. For `C[C@@]1(c2cc(NC(=O)c3coc(Cl)n3)ccc2F)CCSC(N)=N1` [Compound 467], the IC50 was no more than 1 µM. `Cc1cn(-c2cnc(C(=O)Nc3ccc(F)c([C@]4(C)CCSC(N)=N4)c3)cn2)cn1` [Compound 578] showed an IC50 of no more than 1 µM.
